# Experimental data taken from article PMC7904550, “Application of grouping and read-across for the evaluation of parabens of different chain lengths with a particular focus on endocrine properties” (Archives of Toxicology, 2021).
# Read-outs that look alike come from different tables or passages of the source. Marks after values point to notes of the source that are not given here.
# Columns and labels:
# Wistar rats [1] = details: ref Food and Drug Research Laboratories 1972, cited from earlier work; for NOAEL, developmental toxicity: similar to OECD 414, conducted 1972, highest dose tested, GD 6–15
# Wistar rats [2] = test: Higher-tier studies taken together (OECD TG 408, 414, 421/422, 443): NOAEL; details: over all higher-tier studies
# Method: All in vivo studies were conducted as oral gavage studies, selecting the oral route as most appropriate route of administration to reflect the worst-case exposure scenario. […] The OECD TG 443 included mating of first generation (F1) offspring to produce a second generation (F2), and the DIT and DNT cohorts.
# rats = details: OECD 478; ref ECHA dissemination portal; cited from earlier work
# Wistar rats [3] = test: 90-day repeated dose oral toxicity study (OECD TG 408); format: in vivo, rat; details: for NOAEL, 90-day repeated-dose toxicity: OECD 408 v 2018, oral gavage
# From the text: Healthy and specific pathogen-free male and female (non-pregnant and nulliparous) Wistar Crl: WI(Han) rats were obtained from Charles River Laboratories (Germany). […] Upon arrival at BSL BIOSERVICE, the animals underwent an acclimatisation period of at least 5 days, and they were approximately 15–16 weeks old at the onset of the treatment period.
# [4] = Acid dissociation constant (pKa); format: physicochemical; details: OECD TG 112; read-out: pKa
# From the text: Generally, these parabens have very similar physico-chemical properties.
structure (smiles),measurement,setting,value
"COC(=O)c1ccc(O)cc1 [Methyl paraben, Methyl 4-hydroxybenzoate]",NOAEL: No. of foetal deaths; viable foetuses,"Wistar rats [1]; TG 414-like, highest dose",550 mg/kg bw/day
same,No. of foetal deaths; viable foetuses,"Wistar rats [1]; TG 414-like, up to 550 mg/kg bw/day",NAE / NAE
same,Triiodothyronine / thyroxine level,"Wistar rats [1]; dams, TG 414-like, up to 550 mg/kg bw/day",NAE / NAE (dams)
same,"NOAEL, developmental toxicity",Wistar rats [1],NOAEL: 550 (highest dose tested) (similar to OECD 414; conducted 1972) mg/kg body weight/day
same,"NOAEL, developmental toxicity",Wistar rats [1]; listed as methyl paraben,550 mg/kg body weight/day
same,NOAEL: Accessory sex organs HP,Wistar rats [2],1000 / 1000 mg/kg bw/day
same,NOAEL: Adrenals HP,Wistar rats [2],1000 / 1000 mg/kg bw/day
same,NOAEL: Adrenals weight,Wistar rats [2],1000 / 1000 mg/kg bw/day
same,NOAEL: Age at balano-preputial separation,Wistar rats [2],1000 / 1000 mg/kg bw/day
same,NOAEL: Age at vaginal opening,Wistar rats [2],1000 / 1000 mg/kg bw/day
same,NOAEL: Anogenital distance,Wistar rats [2],1000 / 1000 mg/kg bw/day
same,NOAEL: Auditory startle,Wistar rats [2],1000 / 1000 mg/kg bw/day
same,NOAEL: Brain HP,Wistar rats [2],1000 / 1000 mg/kg bw/day
same,NOAEL: Brain morphometric evaluation,Wistar rats [2],1000 / 1000 mg/kg bw/day
same,NOAEL: Brain weight,Wistar rats [2],1000 / 1000 mg/kg bw/day
same,NOAEL: Cervix HP,Wistar rats [2],1000 / 1000 mg/kg bw/day
same,NOAEL: Coagulating gland HP,Wistar rats [2],1000 / 1000 mg/kg bw/day
same,NOAEL: Coagulating gland weight,Wistar rats [2],1000 / 1000 mg/kg bw/day
same,NOAEL: Colloid area (thyroid HP),Wistar rats [2],1000 / 1000 mg/kg bw/day
same,NOAEL: Dystocia,Wistar rats [2],1000 / 1000 mg/kg bw/day
same,NOAEL: Epididymis HP,Wistar rats [2],1000 / 1000 mg/kg bw/day
same,NOAEL: Epididymis weight,Wistar rats [2],1000 / 1000 mg/kg bw/day
same,NOAEL: Fertility,Wistar rats [2],1000 / 1000 mg/kg bw/day
same,NOAEL: Foetal development,Wistar rats [2],1000 / 1000 mg/kg bw/day
same,NOAEL: Functional observation battery,Wistar rats [2],1000 / 1000 mg/kg bw/day
same,NOAEL: Genital abnormalities,Wistar rats [2],1000 / 1000 mg/kg bw/day
same,NOAEL: Gestation length,Wistar rats [2],1000 / 1000 mg/kg bw/day
same,NOAEL: Litter / pup weight,Wistar rats [2],1000 / 1000 mg/kg bw/day
same,NOAEL: Litter size,Wistar rats [2],1000 / 1000 mg/kg bw/day
same,NOAEL: Litter viability,Wistar rats [2],1000 / 1000 mg/kg bw/day
same,NOAEL: Liver weight,Wistar rats [2],1000 / 1000 mg/kg bw/day
same,NOAEL: Mammary gland HP; females,Wistar rats [2],1000 / 1000 mg/kg bw/day
same,NOAEL: Mammary gland HP; males,Wistar rats [2],1000 / 1000 mg/kg bw/day
same,NOAEL: Motor activity,Wistar rats [2],1000 / 1000 mg/kg bw/day
same,NOAEL: Nipple development,Wistar rats [2],1000 / 1000 mg/kg bw/day
same,"NOAEL: No. of implantations, corpora lutea",Wistar rats [2],1000 / 1000 mg/kg bw/day
same,NOAEL: No. of live births,Wistar rats [2],1000 / 1000 mg/kg bw/day
same,NOAEL: No. of ovarian follicles,Wistar rats [2],1000 / 1000 mg/kg bw/day
same,NOAEL: Oestrus cyclicity,Wistar rats [2],1000 / 1000 mg/kg bw/day
same,NOAEL: Offspring: learning & memory,Wistar rats [2],1000 / 1000 mg/kg bw/day
same,NOAEL: Ovary HP,Wistar rats [2],1000 / 1000 mg/kg bw/day
same,NOAEL: Ovary weight,Wistar rats [2],1000 / 1000 mg/kg bw/day
same,NOAEL: Oviduct HP,Wistar rats [2],1000 / 1000 mg/kg bw/day
same,NOAEL: Pituitary HP,Wistar rats [2],1000 / 1000 mg/kg bw/day
same,NOAEL: Pituitary weight,Wistar rats [2],1000 / 1000 mg/kg bw/day
same,NOAEL: Postimplantation loss,Wistar rats [2],1000 / 1000 mg/kg bw/day
same,NOAEL: Pre-implantation loss,Wistar rats [2],1000 / 1000 mg/kg bw/day
same,NOAEL: Presence of anomalies,Wistar rats [2],1000 / 1000 mg/kg bw/day
same,NOAEL: Prostate HP,Wistar rats [2],1000 / 1000 mg/kg bw/day
same,NOAEL: Prostate weight,Wistar rats [2],1000 / 1000 mg/kg bw/day
same,NOAEL: Pup development,Wistar rats [2],1000 / 1000 mg/kg bw/day
same,NOAEL: Reproduction,Wistar rats [2],1000 / 1000 mg/kg bw/day
same,NOAEL: Seminal vesicles HP,Wistar rats [2],1000 / 1000 mg/kg bw/day
same,NOAEL: Seminal vesicles weight,Wistar rats [2],1000 / 1000 mg/kg bw/day
same,NOAEL: Testis HP,Wistar rats [2],1000 / 1000 mg/kg bw/day
same,NOAEL: Testis weight,Wistar rats [2],1000 / 1000 mg/kg bw/day
same,NOAEL: Thyroid HP,Wistar rats [2],1000 / 1000 mg/kg bw/day
same,NOAEL: Thyroid stimulating hormone level,Wistar rats [2],1000 / 1000 mg/kg bw/day
same,NOAEL: Thyroid weight,Wistar rats [2],1000 / 1000 mg/kg bw/day
same,NOAEL: Time to mating,Wistar rats [2],1000 / 1000 mg/kg bw/day
same,NOAEL: Triiodothyronine / thyroxine level,Wistar rats [2],1000 / 1000 mg/kg bw/day
same,NOAEL: Uterus HP (with cervix),Wistar rats [2],1000 / 1000 mg/kg bw/day
same,NOAEL: Uterus weight (with cervix),Wistar rats [2],1000 / 1000 mg/kg bw/day
same,NOAEL: Vagina HP,Wistar rats [2],1000 / 1000 mg/kg bw/day
same,NOAEL: Vaginal smears,Wistar rats [2],1000 / 1000 mg/kg bw/day
same,Genetic toxicity in vivo (rats) classification,rats,Not clastogenic (OECD 478; 1974) [d]
same,"NOAEL, 90-day repeated-dose toxicity",Wistar rats [3],NOAEL: 1000 (OECD 408; v 2018) mg/kg body weight/day
same,"NOAEL, 90-day repeated-dose toxicity",Wistar rats [3]; listed as methyl paraben,1000 mg/kg body weight/day
same,Accessory sex organs HP,Wistar rats [3]; P0,NAE / NAE
same,Adrenals HP,Wistar rats [3]; P0,NAE / NAE
same,Adrenals weight,Wistar rats [3]; P0,NAE / NAE
same,Brain weight,Wistar rats [3]; P0,NAE / NAE
same,Cervix HP,Wistar rats [3]; P0,NAE / NAE
same,Coagulating gland HP,Wistar rats [3]; P0,NAE / NAE
same,Coagulating gland weight,Wistar rats [3]; P0,NAE / NAE
same,Epididymis HP,Wistar rats [3]; P0,NAE / NAE
same,Epididymis weight,Wistar rats [3]; P0,NAE / NAE
same,Liver weight,Wistar rats [3]; P0,NAE / NAE
same,Mammary gland HP; females,Wistar rats [3]; P0,NAE / NAE
same,Mammary gland HP; males,Wistar rats [3]; P0,NAE / NAE
same,Oestrus cyclicity,Wistar rats [3]; P0,NAE / NAE
same,Ovary HP,Wistar rats [3]; P0,NAE / NAE
same,Ovary weight,Wistar rats [3]; P0,NAE / NAE
same,Oviduct HP,Wistar rats [3]; P0,NAE / NAE
same,Pituitary HP,Wistar rats [3]; P0,NAE / NAE
same,Pituitary weight,Wistar rats [3]; P0,NAE / NAE
same,Prostate HP,Wistar rats [3]; P0,NAE / NAE
same,Prostate weight,Wistar rats [3]; P0,NAE / NAE
same,Seminal vesicles HP,Wistar rats [3]; P0,NAE / NAE
same,Seminal vesicles weight,Wistar rats [3]; P0,NAE / NAE
same,Testis HP,Wistar rats [3]; P0,NAE / NAE
same,Testis weight,Wistar rats [3]; P0,NAE / NAE
same,Thyroid HP,Wistar rats [3]; P0,NAE / NAE
same,Thyroid stimulating hormone level,Wistar rats [3]; P0,NAE / NAE
same,Thyroid weight,Wistar rats [3]; P0,NAE / NAE
same,Triiodothyronine / thyroxine level,Wistar rats [3]; P0,NAE / NAE
same,Uterus HP (with cervix),Wistar rats [3]; P0,NAE / NAE
same,Uterus weight (with cervix),Wistar rats [3]; P0,NAE / NAE
same,Vagina HP,Wistar rats [3]; P0,NAE / NAE
same,Vaginal smears,Wistar rats [3]; P0,NAE / NAE
same,Signs of systemic toxicity,Wistar rats [3]; sub-chronic (90-day) oral application,did not induce any signs of systemic toxicity
same,pKa,[4],8.4
